Test results from publication PMC8231256, “Influence of N-Methylation and Conformation on Almiramide Anti-Leishmanial Activity” (Molecules, 2021).
Several values for one entry are separate records, joined by “and”; a condition that tells them apart may be missing. Equal values may be shown once. Read-outs that look alike come from different tables or passages of the source. Where a SMILES comes first, the peptide text is derived from it. [ ]: non-standard residue; d: D form. The star is where a group is joined. NMeF = CN[C@@H](Cc1ccccc1)C(=O)O; NMeV = CN[C@H](C(=O)O)C(C)C; Hept6ynoyl = C#CCCCCC(=O)*; NMeA = CN[C@@H](C)C(=O)O; NH(CH2)6NH2 = NCCCCCCN*

Assays:
[1] = LM-1 macrophage cytotoxicity (Alamar Blue); type: cell-based, murine; settings: for CC50 at 24 h: mouse
Experimental: The host cytotoxicity was evaluated by monitoring the survival rates of murine LM-1 macrophage at different concentrations of peptides 15–37 ([…]) over 24 h. […] Exceptionally, MeAla peptide amide 21 was 3.2- to 8-fold less toxic than the other peptide analogs.
The LM1- macrophages were grown in DMEM supplemented with 10% heat inactivated FBS. Cells at the concentration of 100,000 cells/mL were cultivated for 24 h in a 96-well plate (37 °C, 5% CO2). The culture medium was removed and fresh medium containing the appropriate drug and concentration was added to the cells, which were incubated for 24 h (37 °C, 5% CO2). Seven different concentrations were tested ([…]) as well as controls (without drugs). After 24 h, the culture medium was removed and replaced for fresh medium containing 10% Alamar Blue (Thermo Fisher Scientific, Waltham, MA, USA) and incubated for 2 h (37 °C, 5% CO2). Readings at 570 and 600 nm (Asys UVM340 Plate reader, Biochrom, Cambridge, UK) were taken and analyzed according to the manufacturer protocol. Survival rates at different drug concentrations and CC50 values were calculated using the Excel software.

[2] = tested on: L. infantum (MHOM/MA/67/ITMAP-263) wild-type strain (WT) promastigotes; type: cell-based, Leishmania infantum; settings: for EC50: 72 h; for Selectivity Index: SI = CC50 (LM-1 macrophage)/EC50 Ldi WT
Experimental: (§1) The biological activity of peptides 15–37 was assessed against the L. infantum wild-type stain (WT), as well as mutants resistant to the common anti-leishmanial agents, such as antimony (Sb^III), amphotericin B (AmB) and miltefosine (MF): Sb2000.1, AmB1000.1 and MF200.5. Activity against Leishmania promastigotes was determined by monitoring the replication of parasites after 72 h of incubation at 25 °C in the presence of increasing concentrations of the different peptides […] and reported as EC50 values (Table 2). […] The greatest potencies were observed using analogs against the amphotericin B resistant strain (e.g., AmB1000.1).
(§2) The L. infantum (MHOM/MA/67/ITMAP-263) wild-type stain (WT), as well as the resistant mutants Sb2000.1, AmB1000.1 and MF200.5 [53, 54, 55, 56, 57, 58], resistant to antimony (Sb^III), amphotericin B (AmB) and miltefosine (MF), respectively, were grown in M199 medium at 25 °C supplemented with 10% fetal bovine serum, 5 μg/mL of haemin at pH 7.0 and 2000 μM Sb (Potassium antimonyl tartrate, Sigma-Aldrich), 200 μM of MF (Miltefosine, Cayman Chem., Ann Arbor, MI, USA) or 1 μM AmB (Amphotericin B solution, Sigma, Oakville, ON, Canada). Antileishmanial values were determined in Leishmania promastigotes by monitoring the replication of parasites after 72 h of incubation at 25 °C in the presence of increasing concentrations of the different peptides by measuring A600 using a Cytation 5 machine (BioTek, Winooski, VT, USA). EC50 values were calculated based on dose–response curves analyzed by non-linear regression with GraphPad Prism 8.4.3 software (GraphPad Software, La Jolla, CA, USA). An average of at least three independent biological replicates from independent cultures was performed for each determination.

[3] = tested on: L. infantum Sb2000.1 (resistant to antimony) promastigotes; type: cell-based, Leishmania infantum; settings: strain resistant to 2 mM antimonials, 72 h, 25 °C, 95% CI in brackets (n = 3), read-out: Ldi Sb-Res EC50
Experimental: as §1, §2

[4] = tested on: L. infantum MF200.5 (resistant to miltefosine) promastigotes; type: cell-based, Leishmania infantum; settings: strain resistant to 200 µM miltefosine; promastigotes, 72 h, 25 °C; 95% CI in brackets (n = 3); read-out: Ldi MF-Res EC50
Experimental: as §1, §2

[5] = tested on: L. infantum AmB1000.1 (resistant to amphotericin B) promastigotes; type: cell-based, Leishmania infantum; settings: for EC50: strain resistant to 1 µM amphotericin B, promastigotes, 72 h, 25 °C, 95% CI in brackets (n = 3), read-out: Ldi AmB-Res EC50
Experimental: as §1, §2

[6] = MHOM/MA/67/ITMAP-263) wild-type strain (WT) promastigotes
[7] = LM-1 macrophages, 24 h, Alamar Blue, read-out: CC50
[8] = promastigotes, 25 °C, 95% confidence interval in brackets (n = 3), read-out: Ldi WT EC50

| SMILES | CC50 [1] [µM] | EC50 [2, 6] [µM] | Selectivity Index [2] | EC50 [3] [µM] | EC50 [4] [µM] | EC50 [5] [µM] | CC50 at 24 h [1] [µM] | CC50 at 24 h [1, 7] [µM] | EC50 [2, 8] [µM] | fold more active than nonmethylated counterpart ([5]; AmB1000.1, 17 vs 16, 35 vs 31) [fold] | therapeutic index ([5]; macrophage toxicity compared with potency against the AmB resistant Leishmania strain) |
| --- | --- | --- | --- | --- | --- | --- | --- | --- | --- | --- | --- |
| C#CCCCCC(=O)N[C@H](C(=O)N[C@H](C(=O)N[C@H](C(=O)N[C@H]1CCN([C@H](Cc2ccccc2)C(=O)NCCCCCCN)C1=O)C(C)C)C(C)C)C(C)C [R-32, HCC(CH2)4CO-Val-Val-Val-Agl-D-Phe-NH(CH2)6NH2] | 338 | 92.6 | 3.6 | 111 | 123 | 118 |  |  |  |  |  |
| C#CCCCCC(=O)N[C@H](C(=O)N(C)[C@H](C(=O)N[C@H](C(=O)N[C@@H](C)C(=O)N[C@@H](Cc1ccccc1)C(=O)NCCCCCCN)C(C)C)C(C)C)C(C)C [compound 19, HCC(CH2)4CO-Val-Val(Me)-Val-Ala-Phe-NH(CH2)6NH2] (Hept6ynoyl-V[NMeV]VAF-{NH(CH2)6NH2}) |  | 81.2 | 3.9 | 78.9 | 89.2 | 70.3 | 316 |  |  |  |  |
| C#CCCCCC(=O)N(C)[C@H](C(=O)N(C)[C@H](C(=O)N(C)[C@H](C(=O)N(C)[C@@H](C)C(=O)N(C)[C@@H](Cc1ccccc1)C(=O)O)C(C)C)C(C)C)C(C)C [peptide 12, HCC(CH2)4CO-Val(Me)-Val(Me)-Val(Me)-Ala(Me)-Phe(Me)-OH] (Hept6ynoyl-[NMeV][NMeV][NMeV][NMeA][NMeF]-OH) |  |  | 4.1 | 70.7 | 75.6 | 79.6 |  | 281 | 68.3 |  |  |
| C#CCCCCC(=O)N[C@H](C(=O)N[C@H](C(=O)N[C@H](C(=O)N[C@@H](C)C(=O)N[C@@H](Cc1ccccc1)C(=O)O)C(C)C)C(C)C)C(C)C [peptide 15, HCC(CH2)4CO-Val-Val-Val-Ala-Phe-OH] (Hept6ynoyl-VVVAF-OH) |  | 44.7 | 7.0 | 60.3 | 50.8 | 46.4 | 316 |  |  |  |  |
| C#CCCCCC(=O)N[C@H](C(=O)N[C@H](C(=O)N[C@H](C(=O)N[C@@H](C)C(=O)N[C@@H](Cc1ccccc1)C(=O)NCCCCCCN)C(C)C)C(C)C)C(C)C [peptide 16, HCC(CH2)4CO-Val-Val-Val-Ala-Phe-NH(CH2)6NH2] (Hept6ynoyl-VVVAF-{NH(CH2)6NH2}) |  | 23.4 | 19.2 and 19.0 | 30.3 | 18.1 | 20.8 | 446 |  |  |  |  |
| C#CCCCCC(=O)N(C)[C@H](C(=O)N(C)[C@H](C(=O)N(C)[C@H](C(=O)N(C)[C@@H](C)C(=O)N(C)[C@@H](Cc1ccccc1)C(=O)NCCCCCCN)C(C)C)C(C)C)C(C)C [peptide 17, HCC(CH2)4CO-Val(Me)-Val(Me)-Val(Me)-Ala(Me)-Phe(Me)-NH(CH2)6NH2] (Hept6ynoyl-[NMeV][NMeV][NMeV][NMeA][NMeF]-{NH(CH2)6NH2}) |  |  | 6.9 | 60.2 | 25.5 | 5.6 |  | 338 | 48.4 | 4 |  |
| C#CCCCCC(=O)N(C)[C@H](C(=O)N[C@H](C(=O)N[C@H](C(=O)N[C@@H](C)C(=O)N[C@@H](Cc1ccccc1)C(=O)NCCCCCCN)C(C)C)C(C)C)C(C)C [peptide 18, HCC(CH2)4CO-Val(Me)-Val-Val-Ala-Phe-NH(CH2)6NH2] (Hept6ynoyl-[NMeV]VVAF-{NH(CH2)6NH2}) |  | 36.7 | 4.8 | 39.6 | 12.1 | 5.03 | 177 |  |  |  | 36 |
| C#CCCCCC(=O)N[C@H](C(=O)N[C@H](C(=O)N(C)[C@H](C(=O)N[C@@H](C)C(=O)N[C@@H](Cc1ccccc1)C(=O)NCCCCCCN)C(C)C)C(C)C)C(C)C [peptide 20, HCC(CH2)4CO-Val-Val-Val(Me)-Ala-Phe-NH(CH2)6NH2] (Hept6ynoyl-VV[NMeV]AF-{NH(CH2)6NH2}) |  | 53.9 | 5.2 | 40.2 | 60.6 | 57.2 | 281 |  |  |  |  |
| C#CCCCCC(=O)N[C@H](C(=O)N[C@H](C(=O)N[C@H](C(=O)N(C)[C@@H](C)C(=O)N[C@@H](Cc1ccccc1)C(=O)NCCCCCCN)C(C)C)C(C)C)C(C)C [peptide 21, HCC(CH2)4CO-Val-Val-Val-Ala(Me)-Phe-NH(CH2)6NH2] (Hept6ynoyl-VVV[NMeA]F-{NH(CH2)6NH2}) |  | 75.8 | 19.1 and 18.9 | 79.8 | 63.5 | 65.7 | 1440 |  |  |  |  |
| C#CCCCCC(=O)N[C@H](C(=O)N[C@H](C(=O)N[C@H](C(=O)N[C@@H](C)C(=O)N(C)[C@@H](Cc1ccccc1)C(=O)NCCCCCCN)C(C)C)C(C)C)C(C)C [peptide 22, HCC(CH2)4CO-Val-Val-Val-Ala-Phe(Me)-NH(CH2)6NH2] (Hept6ynoyl-VVVA[NMeF]-{NH(CH2)6NH2}) |  | 29 | 15.3 | 25 | 27.8 | 25.9 | 446 |  |  |  |  |
| C#CCCCCC(=O)N[C@H]1CCN([C@H](C(=O)N[C@H](C(=O)N[C@@H](C)C(=O)N[C@@H](Cc2ccccc2)C(=O)O)C(C)C)C(C)C)C1=O [peptide 23, HCC(CH2)4CO-Agl-Val-Val-Ala-Phe-OH] |  | 225 | 1.61 | 241 | 232 | 212 | 363 |  |  |  |  |
| C#CCCCCC(=O)N[C@H](C(=O)N[C@H]1CCN([C@H](C(=O)N[C@@H](C)C(=O)N[C@@H](Cc2ccccc2)C(=O)O)C(C)C)C1=O)C(C)C [peptide 24, HCC(CH2)4CO-Val-Agl-Val-Ala-Phe-OH] |  | 248 | 1.6 | 251 | 238 | 261 | 398 |  |  |  |  |
| C#CCCCCC(=O)N[C@H](C(=O)N[C@H](C(=O)N[C@H]1CCN([C@@H](C)C(=O)N[C@@H](Cc2ccccc2)C(=O)O)C1=O)C(C)C)C(C)C [peptide 25, HCC(CH2)4CO-Val-Val-Agl-Ala-Phe-OH] |  |  |  | > 300 | > 300 | > 300 | 416 |  | > 300 |  |  |
| C#CCCCCC(=O)N(C)[C@H]1CCN([C@H](C(=O)N(C)[C@H](C(=O)N(C)[C@@H](C)C(=O)N(C)[C@@H](Cc2ccccc2)C(=O)O)C(C)C)C(C)C)C1=O [peptide 26, HCC(CH2)4CO-Agl(Me)-Val-Val(Me)-Ala-Phe(Me)-OH] |  | 217 | 1.46 | 220 | 224 | 252 | 316 |  |  |  |  |
| C#CCCCCC(=O)N(C)[C@H](C(=O)N(C)[C@H]1CCN([C@H](C(=O)N(C)[C@@H](C)C(=O)N(C)[C@@H](Cc2ccccc2)C(=O)NCCCCCCN)C(C)C)C1=O)C(C)C [peptide 34, HCC(CH2)4CO-Val(Me)-Agl(Me)-Val-Ala(Me)-Phe(Me)-NH(CH2)6NH2] |  | 33.2 | 12.0 |  | 23.1 | 24.8 | 398 |  |  |  |  |
